# Assay results published in the supplement of paper PMC10307832.
# Legend:
# Assay in all cases: relative viability (nuclei count vs DMSO), 5 days (fraction); higher = more cells survive
# Dactolisib + Alpelisib = compound: Cn1c(=O)n(-c2ccc(C(C)(C)C#N)cc2)c2c3cc(-c4cnc5ccccc5c4)ccc3ncc21 [Dactolisib] + Cc1nc(NC(=O)N2CCC[C@H]2C(N)=O)sc1-c1ccnc(C(C)(C)C(F)(F)F)c1 [Alpelisib] (partner 2 µM)
# How it was run: (§1)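 Relative viability divides the nuclei count in treated wells by that in vehicle wells. Lung cancer cell lines were seeded in 1536-well plates, dosed by pin tool the next day, and fixed and stained after 5 days in one step with final 0.05% Triton X-100, 1% formaldehyde and 1 ug/ml Hoechst. Dosing was a single drug or a fixed anchor-drug dose plus five library-drug doses (not always all listed) in √10 steps, and values are medians of duplicate plates imaged at 4×.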
# AZ505 + Palbociclib = compound: C1CCC(CC1)N(CCNCCC2=C3C(=C(C=C2)O)NC(=O)CO3)C(=O)CCNCCC4=CC(=C(C=C4)Cl)Cl [AZ505] + CC(=O)c1c(C)c2cnc(Nc3ccc(N4CCNCC4)cn3)nc2n(C2CCCC2)c1=O [Palbociclib] (partner 0.5 µM)
# How it was run: as §1
# Dactolisib + Decitabine = compound: Cn1c(=O)n(-c2ccc(C(C)(C)C#N)cc2)c2c3cc(-c4cnc5ccccc5c4)ccc3ncc21 [Dactolisib] + Nc1ncn([C@H]2C[C@H](O)[C@@H](CO)O2)c(=O)n1 [Decitabine] (partner 2 µM)
# How it was run: as §1
# AZ505 + Pemetrexed = compound: C1CCC(CC1)N(CCNCCC2=C3C(=C(C=C2)O)NC(=O)CO3)C(=O)CCNCCC4=CC(=C(C=C4)Cl)Cl [AZ505] + Nc1nc2[nH]cc(CCc3ccc(C(=O)N[C@@H](CCC(=O)O)C(=O)O)cc3)c2c(=O)[nH]1 [Pemetrexed] (partner 0.2 µM)
# How it was run: as §1
Cell Line,relative viability (Dactolisib + Alpelisib; first compound 0.002 µM),relative viability (Dactolisib + Alpelisib; first compound 0.006325 µM),relative viability (Dactolisib + Alpelisib; first compound 0.02 µM),relative viability (Dactolisib + Alpelisib; first compound 0.06325 µM),relative viability (Dactolisib + Alpelisib; first compound 0.2 µM),relative viability (AZ505 + Palbociclib; first compound 0.08 µM),relative viability (AZ505 + Palbociclib; first compound 0.253 µM),relative viability (AZ505 + Palbociclib; first compound 0.8 µM),relative viability (AZ505 + Palbociclib; first compound 2.53 µM),relative viability (AZ505 + Palbociclib; first compound 8 µM),relative viability (Dactolisib + Decitabine; first compound 0.002 µM),relative viability (Dactolisib + Decitabine; first compound 0.006325 µM),relative viability (Dactolisib + Decitabine; first compound 0.02 µM),relative viability (Dactolisib + Decitabine; first compound 0.06325 µM),relative viability (Dactolisib + Decitabine; first compound 0.2 µM),relative viability (AZ505 + Pemetrexed; first compound 0.08 µM),relative viability (AZ505 + Pemetrexed; first compound 0.253 µM),relative viability (AZ505 + Pemetrexed; first compound 0.8 µM),relative viability (AZ505 + Pemetrexed; first compound 2.53 µM),relative viability (AZ505 + Pemetrexed; first compound 8 µM)
LK-2,0.934,1.03,0.793,0.526,0.416,0.487,0.73,0.768,0.792,0.898,0.347,0.305,0.335,0.159,0.142,0.215,0.254,0.294,0.283,0.313
HCC-366,0.329,0.369,0.401,0.175,0.134,0.361,0.491,0.326,0.402,0.384,0.376,0.338,0.256,0.28,0.133,0.142,0.174,0.179,0.2,0.16
BEN,1.01,0.89,0.808,0.47,0.277,0.458,0.457,0.442,0.48,0.498,0.802,0.692,0.63,0.518,0.41,0.682,0.678,0.871,0.746,0.786
NCI-H23,0.629,0.607,0.615,0.356,0.303,0.465,0.522,0.505,0.533,0.485,0.295,0.296,0.316,0.263,0.234,0.638,0.506,0.604,0.73,0.668
NCI-H1395,0.863,0.757,1.23,0.602,0.511,0.593,,0.638,0.661,0.686,0.601,0.69,0.667,0.505,0.447,0.919,,0.733,0.969,1.04
201T,1.01,0.994,0.986,0.98,0.688,0.36,0.353,0.331,0.357,0.353,0.87,0.864,0.808,0.706,0.477,0.343,0.342,0.403,0.345,0.31
NCI-H2170,0.787,0.754,0.706,0.479,0.26,0.38,0.39,0.379,0.401,0.434,0.489,0.466,0.476,0.371,0.354,0.254,0.257,0.238,0.253,0.264
NCI-H460,0.723,0.352,0.35,0.0712,0.0542,0.183,0.162,0.147,0.187,0.167,0.612,0.461,0.504,0.252,0.134,0.063,0.0565,0.0644,0.0703,0.0621
NCI-H661,0.823,0.6,0.62,0.484,0.225,0.404,0.433,0.402,0.422,0.372,0.574,0.532,0.501,0.346,0.324,0.834,0.928,0.865,0.931,0.928
HCC-15,0.941,0.832,0.874,0.417,0.38,0.78,0.714,0.686,0.847,0.739,0.626,0.599,0.617,0.33,0.208,0.209,0.231,0.22,0.218,0.24
LCLC-103H,1.01,0.943,0.95,0.673,0.539,0.485,0.455,0.455,0.45,0.452,0.678,0.677,0.592,0.458,0.433,0.453,0.491,0.457,0.519,0.448
NCI-H441,1.05,0.74,0.685,0.429,0.271,0.228,0.233,0.258,0.231,0.223,0.285,0.256,0.31,0.233,0.203,0.254,0.272,0.278,0.308,0.262
EPLC-272H,0.961,0.752,0.779,0.527,0.465,0.272,0.291,0.315,0.298,0.35,0.36,0.364,0.317,0.281,0.23,0.246,0.318,0.254,0.245,0.232
